Results published in ChEMBL document CHEMBL1155411, “Design of two new chemotypes for inhibiting the Janus kinase 2 by scaffold morphing” (Bioorg Med Chem Lett, 2010).

Biological target: Tyrosine-protein kinase JAK2 (Homo sapiens, UniProt O60674)
Assay: Inhibition of recombinant GST tagged JAK2 after 60 mins by Caliper mobility shift assay

Chain of Tyrosine-protein kinase JAK2 (O60674 whole entry): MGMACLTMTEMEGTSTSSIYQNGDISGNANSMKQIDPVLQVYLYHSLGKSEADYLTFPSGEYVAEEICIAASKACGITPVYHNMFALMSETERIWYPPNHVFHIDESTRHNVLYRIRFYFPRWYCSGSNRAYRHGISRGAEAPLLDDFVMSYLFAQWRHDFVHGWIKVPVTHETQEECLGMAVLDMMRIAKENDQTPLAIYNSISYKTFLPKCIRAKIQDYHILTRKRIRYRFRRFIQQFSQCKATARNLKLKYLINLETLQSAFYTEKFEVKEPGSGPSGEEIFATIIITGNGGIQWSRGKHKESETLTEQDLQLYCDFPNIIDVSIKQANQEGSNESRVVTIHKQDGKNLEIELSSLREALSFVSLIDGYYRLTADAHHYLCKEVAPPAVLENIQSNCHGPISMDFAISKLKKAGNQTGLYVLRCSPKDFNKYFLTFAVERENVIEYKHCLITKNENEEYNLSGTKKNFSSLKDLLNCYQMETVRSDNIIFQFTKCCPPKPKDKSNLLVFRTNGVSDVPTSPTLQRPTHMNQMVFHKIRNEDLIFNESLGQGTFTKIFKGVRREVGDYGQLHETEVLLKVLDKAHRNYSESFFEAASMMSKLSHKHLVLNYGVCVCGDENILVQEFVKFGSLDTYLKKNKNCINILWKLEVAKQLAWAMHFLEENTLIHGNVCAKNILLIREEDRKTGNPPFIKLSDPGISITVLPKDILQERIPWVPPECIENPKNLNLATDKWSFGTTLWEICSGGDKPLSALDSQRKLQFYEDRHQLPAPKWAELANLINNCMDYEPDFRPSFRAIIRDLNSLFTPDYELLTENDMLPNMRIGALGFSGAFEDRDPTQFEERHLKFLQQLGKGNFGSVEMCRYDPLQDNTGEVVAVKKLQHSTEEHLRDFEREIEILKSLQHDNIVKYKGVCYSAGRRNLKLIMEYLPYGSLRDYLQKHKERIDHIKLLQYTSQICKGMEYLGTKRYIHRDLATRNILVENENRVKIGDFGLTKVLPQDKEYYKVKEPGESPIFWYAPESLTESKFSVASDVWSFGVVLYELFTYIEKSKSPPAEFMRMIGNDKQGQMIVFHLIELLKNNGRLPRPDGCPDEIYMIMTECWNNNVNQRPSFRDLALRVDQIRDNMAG

IC50: 5.9 nM
Structure (SMILES): COc1cc(Nc2ncc3ccn(-c4ccccn4)c3n2)cc(OC)c1OC
